{"source": "patent US10721929B2", "about": "“Heterocyclic compound and harmful-arthropod-controlling agent containing same” (Sumitomo Chemical Company, Limited, priority 2016, dated 2020)", "test_system": "western corn rootworm", "assay": "Test Example 5: corn seedling immersion test, western corn rootworm larvae", "format": "in vivo", "settings": "Zea mays, 120 h, corn seedlings immersed 30 seconds, ten 2-instar larvae, five days later, read-out: mortality rate of insects", "description": "1 mg of each test compound is dissolved in 50 μL of a mixed solution of polyoxyethylene sorbitan monococoate:acetone=5.95 (volume ratio). To the resultant is added water containing 0.03% by volume of a spreading agent, to prepare a diluted solution containing a predetermined concentration of the test compound.\nSeeds of corn (Zea mays) are seeded onto a tray lined with wet Kimwipes, After the corn has grown for 5 days, die entire seedlings are immersed into the diluted solution for 30 seconds. Thereafter, two seedlings are put in a petri dish (diameter of 90 mm), and ten 2-instar larvae of western corn rootworm are released thereinto. Five days later, the number of dead insects is counted, and a mortality rate of insects is calculated by the following expression. Mortality rate of insects (%)=(number of dead insects/10)×100.", "data": [{"smiles": "CCSc1c(-c2ccc(OCC(F)(F)C(F)(F)F)cn2)nc2ccc(C(F)(F)F)cn12", "note": "[Compound 1]", "values": [{"measurement": "mortality at 500 ppm", "result": "≥ 80", "unit": "%"}]}]}
